Experimental data published in patent US5288709A, “Erythromycin derivatives” (priority 1991, dated 1994).
In brackets after ≈: the same amount, converted by molar mass. Where two headings read alike, the source gives them in different places.

Legend:
Acinetobacter SP CMX 669 = assay: In-vitro antimicrobial activity primary screen (agar dilution MIC); type: cell-based
Summary of the method: (§1)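 BHI agar dilution MIC, 35-37° C overnight (20-24 h), replicator inoculation at 1:100 or 1:10 for slow strains. Endpoint: no growth, slight haze or sparse colonies versus compound-free plate.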

[1] = system: Enterobacter aerogenes ATCC 13048; assay: as above; type: cell-based; conditions: Klebsiella aerogenes
Summary of the method: as §1

[2] = system: Enterococcus faecium ATCC 8043; assay: as above; type: cell-based; conditions: Enterococcus faecium, ATCC8043, 24 h
Summary of the method: as §1

Escherichia coli DC-2 = assay: as above; type: cell-based; conditions: Escherichia coli DC-2, BHI agar, 20-24 h
Summary of the method: as §1

Escherichia coli H560 = assay: as above; type: cell-based; conditions: Escherichia coli H560, BHI agar, 20-24 h
Summary of the method: as §1

Escherichia coli JUHL = assay: as above; type: cell-based; conditions: Escherichia coli JUHL, BHI agar, 20-24 h
Summary of the method: as §1

Escherichia coli SS = assay: as above; type: cell-based; conditions: BHI agar, 20-24 h
Summary of the method: as §1

[3] = system: Klebsiella pneumoniae ATCC 8045; assay: as above; type: cell-based; conditions: Klebsiella pneumoniae, ATCC8045, 24 h
Summary of the method: as §1

[4] = system: Micrococcus luteus ATCC 4698; assay: as above; type: cell-based; conditions: BHI agar, 20-24 h
Summary of the method: as §1

[5] = system: Micrococcus luteus ATCC 9341; assay: as above; type: cell-based; conditions: 20-24 h
Summary of the method: as §1

[6] = system: Providencia stuartii CMX 640; assay: as above; type: cell-based
Summary of the method: as §1

[7] = system: Pseudomonas aeruginosa A5007; assay: as above; type: cell-based
Summary of the method: as §1

[8] = system: Pseudomonas aeruginosa K799/61; assay: as above; type: cell-based
Summary of the method: as §1

[9] = system: Pseudomonas aeruginosa K799/WT; assay: as above; type: cell-based
Summary of the method: as §1

Pseudomonas cepacia 2961 = assay: as above; type: cell-based; conditions: BHI agar, 20-24 h
Summary of the method: as §1

[10] = system: Staphylococcus aureus ATCC 6538P; assay: as above; type: cell-based; conditions: BHI agar, 20-24 h
Summary of the method: as §1

[11] = system: Staphylococcus epidermidis 3519; assay: as above; type: cell-based; conditions: BHI agar, 20-24 h
Summary of the method: as §1

[12] = system: Streptococcus bovis A5169; assay: as above; type: cell-based; conditions: Streptococcus equinus, BHI agar, 20-24 h
Summary of the method: as §1

[13] = system: Streptococcus pyrogenes 2548 INDUC; assay: as above; type: cell-based; conditions: BHI agar, 20-24 h
Summary of the method: as §1

[14] = system: Streptococcus pyrogenes EES61; assay: as above; type: cell-based; conditions: BHI agar, 20-24 h
Summary of the method: as §1

[15] = system: Haemophilus influenzae (ATCC 43095); assay: In-vivo acute mouse protection assay; set-up: species or system Haemophilus influenzae; female Swiss albino mice; conditions: dosed 1 and 5 h post-infection, observed 7 days
Protocol: An acute mouse protection test was conducted on ten mice with each of three concentrations of selected compounds of the invention. Each concentration was a four-fold dilution of the previous concentration. The initial concentration will vary with the microorganism with which the mouse is challenged.
The acute mouse protection test was conducted on female, Swiss albino mice, 18-20 grams in weight. […] To check the potency of the inoculum, a titration of the indicated test organism was carried out in control animals. The titration determines the LD50 for a particular microorganism. The treatment groups of animals were dosed orally, by gavage, or subcutaneously with the test compounds at 1 and 5 hours post-infection and observed for 7 days. The ED50 were calculated using the mortality data collected.

[16] = Pharmacokinetic evaluation in dogs after a 10 mg/kg dose; conditions: dog, plasma; for bioavailability: % ABS (percent absorbance), from AUC (absolute bioavailability); for Cmax: Cmax (maximum concentration in blood); for Tmax: Tmax (time to achieve maximum concentration in blood); for half-life: t1/2 (biological half life)
Protocol: Selected compounds of the present invention were formulated as solutions in dilute lactobionic acid at a concentration of 10 or 20 mg/ml. Groups of two or three dogs were given a 10 mg macrolide/kg intravenous bolus or oral dose (by gavage). Plasma samples, obtained at selected time points from 15 minutes to 32 hours after dosing, were assayed using reverse phase HPLC with electrochemical detection (parent drug) and microbiological assay (total microbiological activity). Plasma concentration time curves were subjected to multi exponential curve fitting to determine terminal elimination half life values. Area under the curve (AUC) values, calculated by the trapezoidal method, were used to calculate absolute bioavailability.

[17] = system: Pseudomonas aeruginosa BMH10; assay: In-vitro antimicrobial activity primary screen (agar dilution MIC); type: cell-based; conditions: BHI agar, 20-24 h, read-out: MIC
Summary of the method: as §1

[18] = system: Staphylococcus aureus 45 RAR2; assay: as above; type: cell-based; conditions: Staphylococcus aureus, 45RAR2, 24 h, BHI agar, 20-24 h
Summary of the method: as §1

Staphylococcus aureus 45 = assay: as above; type: cell-based; conditions: BHI agar, 20-24 h, read-out: MIC
Summary of the method: as §1

[19] = system: Staphylococcus aureus A5177; assay: as above; type: cell-based; conditions: Staphylococcus aureus A5177; BHI agar, 20-24 h; read-out: MIC
Summary of the method: as §1

[20] = system: Streptococcus agalactiae CMX 508; assay: as above; type: cell-based; conditions: CMX508, BHI agar, 20-24 h, read-out: MIC
Summary of the method: as §1

[21] = Micrococcus luteus, ATCC4698, 24 h
[22] = Staphylococcus aureus, ATCC6538P, 24 h
[23] = po, oral 10 mg/kg, microbiological assay
[24] = po, oral 10 mg/kg, HPLC (parent drug)

CC[C@H]1OC(=O)[C@H](C)[C@@H](O[C@H]2C[C@@](C)(OC)[C@@H](O)[C@H](C)O2)[C@H](C)[C@@H](O[C@@H]2O[C@H](C)C[C@H](N(C)C)[C@H]2O)[C@](C)(O)C[C@@H](C)C(=O)[C@H](C)[C@@H](O)[C@]1(C)O [Std, Erythromycin A, reference compound]
MIC (Acinetobacter SP CMX 669; Acinetobacter SP CMX 669, BHI agar, 20-24 h): 3.1 microgram/mL
MIC (Acinetobacter SP CMX 669; Acinetobacter, SPCMX669, 24 h, Acinetobacter SP CMX 669, BHI agar, 20-24 h): 6.2 µg/mL (≈ 8.45 µM)
MIC ([1]; ATCC13048, 24 h): 100 µg/mL (≈ 136 µM)
MIC [2]: 0.05 µg/mL (≈ 0.0681 µM)
MIC (Escherichia coli DC-2): 25 microgram/mL
MIC (Escherichia coli H560; Escherichia coli, H560, 24 h): 25 µg/mL (≈ 34.1 µM)
MIC (Escherichia coli JUHL; Escherichia coli, 24 h): 25 µg/mL (≈ 34.1 µM)
MIC (Escherichia coli SS): 0.39 microgram/mL
MIC (Escherichia coli SS; Escherichia coli, 24 h): 0.2 µg/mL (≈ 0.273 µM)
MIC [3]: 100 µg/mL (≈ 136 µM)
MIC [4]: 0.2 microgram/mL
MIC [4, 21]: 0.1 µg/mL (≈ 0.136 µM)
MIC ([5]; BHI agar): 0.02 microgram/mL
MIC ([6]; Providencia stuartii, CMX640, 24 h): > 100 µg/mL
MIC ([7]; Pseudomonas aeruginosa, A5007, 24 h): > 100 µg/mL
MIC ([8]; Pseudomonas aeruginosa K799/61, BHI agar, 20-24 h): 1.56 microgram/mL
MIC ([8]; Pseudomonas aeruginosa, K799/61, 24 h): 0.78 µg/mL (≈ 1.06 µM)
MIC ([9]; Pseudomonas aeruginosa, K799/WT, 24 h): 100 µg/mL (≈ 136 µM)
MIC (Pseudomonas cepacia 2961): 100 microgram/mL
MIC (Pseudomonas cepacia 2961; Burkholderia cepacia, 2961, 24 h): > 100 µg/mL
MIC [10]: 0.1 microgram/mL
MIC [10, 22]: 0.2 µg/mL (≈ 0.273 µM)
MIC [11]: 0.1 microgram/mL
MIC ([11]; Staphylococcus epidermidis, 3519, 24 h): 0.2 µg/mL (≈ 0.273 µM)
MIC ([12]; A5169, 24 h): 0.02 µg/mL (≈ 0.0273 µM)
MIC [13]: 1.56 microgram/mL
MIC ([13]; Streptococcus, 2548INDUC, 24 h): 3.1 µg/mL (≈ 4.22 µM)
MIC ([14]; Streptococcus, EES61, 24 h): 0.02 µg/mL (≈ 0.0273 µM)
ED50 ([15]; ATCC43095, sc, 168 h, subcutaneous): 29.7 mg/kg
bioavailability [16, 23]: 72%
Cmax [16, 23]: 2500 ng/mL
Tmax [16, 23]: 0.3 h

CC[C@H]1OC(=O)[C@H](C)[C@@H](O[C@H]2C[C@@](C)(OC)[C@@H](O)[C@H](C)O2)[C@H](C)[C@@H](O[C@@H]2O[C@H](C)C[C@H](N(C)C)[C@H]2O)[C@](C)(O)C[C@@H](C)[C@@H]2O[C@@]1(C)[C@@H](N)[C@H]2C [Example 19, (9S,11S)-11-Amino-9-deoxo-11,12-deoxy-9,12-epoxyerythromycin A]
MIC (Acinetobacter SP CMX 669; Acinetobacter, SPCMX669, 24 h): 1.56 µg/mL (≈ 2.18 µM)
MIC ([1]; ATCC13048, Enterobacter aerogenes ATCC 13048, BHI agar, 20-24 h, read-out: MIC): 100 µg/mL (≈ 139 µM)
MIC [2]: 0.05 µg/mL (≈ 0.0697 µM)
MIC (Escherichia coli DC-2; DC2, read-out: MIC): 50 µg/mL (≈ 69.7 µM)
MIC (Escherichia coli H560; read-out: MIC): 6.2 µg/mL (≈ 8.65 µM)
MIC (Escherichia coli JUHL; read-out: MIC): > 100 µg/mL
MIC (Escherichia coli SS; read-out: MIC): 0.78 µg/mL (≈ 1.09 µM)
MIC ([3]; Klebsiella pneumoniae ATCC 8045, BHI agar, 20-24 h): 25 µg/mL (≈ 34.9 µM)
MIC [4, 21]: 0.1 µg/mL (≈ 0.139 µM)
MIC ([5]; ATCC9341, BHI agar, read-out: MIC): 0.01 µg/mL (≈ 0.0139 µM)
MIC ([6]; CMX640, Providencia stuartii CMX 640, BHI agar, 20-24 h, read-out: MIC): > 100 µg/mL
MIC ([7]; Pseudomonas aeruginosa A5007, BHI agar, 20-24 h, read-out: MIC): > 100 µg/mL
MIC [17]: 50 µg/mL (≈ 69.7 µM)
MIC ([8]; Pseudomonas aeruginosa K799/61, BHI agar, 20-24 h, read-out: MIC): 0.78 µg/mL (≈ 1.09 µM)
MIC ([9]; Pseudomonas aeruginosa K799/WT, BHI agar, 20-24 h, read-out: MIC): 100 µg/mL (≈ 139 µM)
MIC (Pseudomonas cepacia 2961; Burkholderia cepacia, read-out: MIC): > 100 µg/mL
MIC [18]: 0.39 µg/mL (≈ 0.544 µM)
MIC (Staphylococcus aureus 45): 0.2 µg/mL (≈ 0.279 µM)
MIC [19]: 0.39 µg/mL (≈ 0.544 µM)
MIC [10, 22]: 0.2 µg/mL (≈ 0.279 µM)
MIC ([11]; read-out: MIC): 0.2 µg/mL (≈ 0.279 µM)
MIC [20]: 0.02 µg/mL (≈ 0.0279 µM)
MIC ([12]; read-out: MIC): 0.1 µg/mL (≈ 0.139 µM)
MIC ([13]; Streptococcus, 2548INDUC, 24 h): 3.1 µg/mL (≈ 4.32 µM)
MIC ([14]; read-out: MIC): < 0.005 µg/mL
ED50 ([15]; ATCC43095, 168 h, oral, read-out: ED50): 101 mg/kg
half-life ([16]; iv, IV 10 mg/kg, HPLC (parent drug)): 7.5 h
half-life ([16]; iv, IV 10 mg/kg, microbiological assay): 6.6 h
bioavailability [16, 24]: 59%
bioavailability [16, 23]: 67%
Cmax [16, 24]: 3200 ng/mL
Cmax [16, 23]: 3300 ng/mL
Tmax [16, 24]: 0.25 h
Tmax [16, 23]: 0.4 h
half-life [16, 24]: 8.1 h
half-life [16, 23]: 5.8 h
